Results on four compounds are retold here after patent US7498292B2, “Combinatorial libraries of autoinducer analogs, autoinducer agonists and antagonists, and methods of use thereof” (The Research Foundation of State University of New York, priority 2002, dated 2009).

Each structure is given as a SMILES string. Entries after “also recorded” stand apart in the source; their conditions may differ.

The test system of data set [1] is pyocyanin. Description: pyocyanin assay, wild type strain PAO1. Type of data set: cell-based, P. aeruginosa PAO1. The settings on record: wild type PAO1, no AIs added. On the procedure:
(§1) For the pyocyanin assay, cells were grown overnight in LB then washed in fresh media and diluted to an OD600 of 0.05. This culture was grown for 3-4 hours to mid-log phase (OD600 of 0.3-0.5), then diluted to an OD600 of 0.05, and aliquoted to test tubes containing an appropriate amount of test compound(s). Following 18 hours of growth, pyocyanin was extracted from filtered culture supernatants and quantified using standard methods (Essar et al., J. Bacteriol. 172:884-900 (1990), which is hereby incorporated by reference in its entirety).

Data set [2] concerns pyocyanin. The data set can be described thus: pyocyanin assay, strain PAO-JP2. Type of data set: cell-based, P. aeruginosa PAO-JP2. The note with it: PAO-JP2, 25 μM each of AI1 and AI2; not concentration dependent over the range tested. On the procedure: as §1
Data set [3] relates to Elastase B. Description: elastase (Elastin Congo Red) assay, wild type strain PAO1. It counts as cell-based, P. aeruginosa PAO1. The settings on record: wild type PAO1, no exogenous autoinducers. On the procedure:
(§2) Pyocyanin, elastase, and biofilm were assayed as previously described (Smith et al., Chem. Biol. 10:81-89 (2003), which is hereby incorporated by reference in its entirety). Elastase activity produced by P. aeruginosa in the presence of AIs and competing 3-oxo-C12-D10 was determined by measuring breakdown of the substrate Elastin Congo Red.
(§3) For the elastase B assay, cells (PAO-JP2) were grown overnight in PTSB media (5% Peptone, 0.1% Tryptic Soy Broth) at 37° C., washed and diluted to an OD600 of 0.05, grown to mid-log phase, washed again, and re-suspended to an OD600 of 0.05. The culture was then added to test tubes containing test compound(s) and grown for 6 hours. Elastase B activity was quantified by incubation of 100 μl of filtered culture supernatant with 5 mg Elastin Congo Red substrate and 1 ml of 10 mM Tris pH 7.2, 1 mM CaCl2 for 6 hours at 37° C. with agitation. Elastase B activity is represented by the OD495 of the enzyme assay following reaction quenching with EDTA and centrifugation to remove unreacted substrate, divided by the OD600 of the cell culture. The same assay was run with strain PAO-1, however no exogenous autoinducers were added.

The next data set relates to P. aeruginosa. Description: cell growth in the reporter assay. It counts as cell-based. The note with it: concentrations up to 400 μM. On the procedure:
Based on the above hypothesis, a competition assay of 2 and 3 against AI1, using strain PAO-JP2 (plasI-LVAgfp), was performed. […] It should be noted that this inhibition experiment was performed with competition against 1 μM AI1, a concentration typically produced by wild type P. aeruginosa (Pearson et al., Proc. Natl Acad. Sci. USA 92:1490-1494 (1995), which is hereby incorporated by reference in its entirety). […] It should also be noted that cell growth was not affected by the addition of 2 or 3 at concentrations up to 400 μM. Thus, it appears that compounds 2 and 3 act as specific inhibitors of QS controlled promoters. Compound 6 was also tested for its ability to compete against AI2, but no inhibition of the rhlI-gfp reporter gene was seen.

The subject of data set [4] is Elastase B. The data set can be described thus: elastase (Elastin Congo Red) assay, strain PAO-JP2. The settings on record: PAO-JP2, 5 μM AI1 and 10 μM AI2. It counts as cell-based, P. aeruginosa PAO-JP2. On the procedure: as §2, §3
The target in data set [5] is T1, LasR (Pseudomonas aeruginosa, UniProt P25084).
T1 construct: endogenous in cells; host or cells: P. aeruginosa PAO-JP2 (lasI, rhlI) harboring plasI-LVAgfp
The data set can be described thus: lasI-gfp reporter antagonist (competition against AI1) assay, PAO-JP2 (plasI-LVAgfp). Type of data set: cell-based, P. aeruginosa. The settings on record: 100-fold excess concentration over AI1 (1 μM AI1). On the procedure:
(§4) P. aeruginosa strain PAO-JP2 (lasI, rhlI) (Rahme et al., Science 268:1899-1902 (1995), which is hereby incorporated by reference in its entirety) harboring plasI-LVAgfp (Pearson et al., Proc. Natl Acad. Sci. USA 91:197-201 (1994), which is hereby incorporated by reference in its entirety) was grown at 37° C. in LB with 300 μg/ml carbenicillin. For agonist assays, an overnight culture was diluted to an OD600 of 0.1 and transferred to wells of a 96-well plate on which test compounds had previously been added and dried. The final concentration of each analog tested was roughly 400 μM, although this is an overestimate due to purity issues. Cells were then incubated for 6 hours at 37° C. with vigorous shaking. GFP expression was detected with a Molecular Imager (BioRad) (488 nm excitation and 695 nm bandpass filter) and quantified with ImageQuant software. The OD600 of cultures was determined to normalize GFP expression to cell density.
The methods were the same as described in Example 2 (GFP Reporter Assay), except that 1 μM AI1 was added to each well in combination with the library compound. The fluorescence/OD600 of each compound competing against AI1 was reported relative to the fluorescence/OD600 of the positive control of AI1 alone, which was set to 1. When strain PAO-JP2 (prhlI-LVAgfp) was used, the positive control was 1 μM AI1 and 10 μM AI2. Eight compounds that inhibited reporter gene expression by greater than 50% were identified (see, e.g., FIG. 6).
(§5) Reporter strains were grown overnight in LB plus 300 μg/ml carbenicillin at 37° C. and diluted to an OD600 of 0.1. Following an incubation of 1 hour, 200 μl of cell culture was added to individual wells of a 96 well plate containing appropriate amount of test compound(s). Plates were incubated for 6 hours and then scanned for fluorescence emission with a Molecular Imager (488 nm excitation and 695 nm bandpass filter). Fluorescence was quantified with ImageQuant software.

The subject of the next data set is lasB promoter. The note with it: 320 μM furanone competing with 0.1 μM AI1; cited from earlier work.
The next data set has as its system lac promoter. Description: GFP expression from lac promoter, PAO-JP2 (pTdK-GFP) (specificity control). It counts as cell-based, P. aeruginosa. The note with it: lasI promoter replaced with a lac promoter.
Data set [6] addresses T1, LasR. Description: lasI-gfp reporter agonist assay, PAO-JP2 (plasI-LVAgfp). Type of data set: cell-based, P. aeruginosa. The note with it: PAO-JP2 (plasI-LVAgfp), compounds made in solution phase, increasing concentrations (1, 100, 400 μM).
Excerpt: Since this strain lacks the ability to produce natural AIs due to disruption of both AI synthase genes, activation of LasR relies on the addition of exogenous AI1. Expression of gfp (encoding green fluorescent protein) is under control of the LasR-AI1 inducible lasI promoter, allowing rapid screening for LasR agonists by measuring the level of GFP expression in their presence.
as §4, §5

For data set [7], the system named is RhlR. Description: rhlI-gfp reporter antagonist assay, PAO-JP2 (prhlI-LVAgfp). Type of data set: cell-based, P. aeruginosa. The note with it: competing against 1 μM AI1 and 10 μM AI2. On the procedure: Each compound in the library was tested for antagonist activity using the same reporter strain, PAO-JP2 (plasI-LVAgfp) (de Kievit et al., Appl. Environ. Microbiol. 67:865-1873 (2001), which is hereby incorporated by reference in its entirety) to find compounds that could compete against AI1 and reduce GFP expression. The methods were the same as described in Example 2 (GFP Reporter Assay), except that 1 μM AI1 was added to each well in combination with the library compound. The fluorescence/OD600 of each compound competing against AI1 was reported relative to the fluorescence/OD600 of the positive control of AI1 alone, which was set to 1. When strain PAO-JP2 (prhlI-LVAgfp) was used, the positive control was 1 μM AI1 and 10 μM AI2.
3- oxo-C12-D10 was synthesized in solution phase, where the natural side chain was coupled with D10 and purified by chromatography. To determine if the same structural motif can be applied to inhibition of the RhlR-AI2 interaction, C4-D10 was also synthesized. Assays were performed with both the lasI-gfp reporter PAO-JP2 (plasI-LVAgfp) and an RhlR-AI2 controlled rhlI-gfp reporter, PAO-JP2 (prhlI-LVAgfp) (FIGS. 10A-C) (de Kievit et al., Appl. Environ. Microbiol. 67:865-1873 (2001), which is hereby incorporated by reference in its entirety).
as §5
Next the ability of 2 and 3 to inhibit the rhlI-gfp reporter strain PAO-JP2 (prhlI-LVAgfp) was tested, since this expression is also AI1-dependent.

In data set [8] the target is T2, RhlR (Pseudomonas aeruginosa, UniProt P54292).
T2 construct: an RhlR-AI2 controlled rhlI-gfp reporter, PAO-JP2 (prhlI-LVAgfp); endogenous in cells; host or cells: P. aeruginosa PAO-JP2 (prhlI-LVAgfp)
The note with it: 4-fold excess, in E. coli; cited from earlier work.

The target of data set [9] is T1, LasR. The data set can be described thus: lasB-lacZ reporter assay, E. coli MG4 (pKDT37). Type of data set: cell-based, P. aeruginosa. The note with it: E. coli MG4 (pKDT37), 6 hour incubation. On the procedure:
E. coli strain MG4 (pKDT37) was grown overnight in Supplemented A media with 100 μg/mL ampicillin at 30° C. and diluted 1:100 in the same media. 1 mL of this culture was added to a test tube containing AI1 or 3-oxo-C12-D12 that had been previously aliquoted and dried. Following a 6 hour incubation at 30° C., β-galactosidase activity was determined using standard methods (Platt et al., Assays of the lac operon Enzymes In: Experiments in Molecular Genetics, Cold Spring Harbor Laboratory Press, Cold Spring Harbor, N.Y., pp. 352-355 (1972), which is hereby incorporated by reference in its entirety).
One of the new agonist structures identified from the library, D12, is 2-aminocyclohexanol (FIG. 5B). […] 3-oxo-C12-D12, containing the natural side chain, was synthesized in solution phase, and tested with both the lasI-gfp reporter as well as a lasB-lacZ reporter in Escherichia coli. E. coli strain MG4 harboring plasmid pKDT37 expresses lasR and contains a lacZ reporter gene controlled by a LasR-AI1 inducible lasB promoter (Passador et al., J. Bacteriol. 178:5995-6000 (1996), which is hereby incorporated by reference in its entirety). […] It also provides strong evidence that the agonist activity in P. aeruginosa is LasR dependent.

T1 sequence (P25084 whole entry): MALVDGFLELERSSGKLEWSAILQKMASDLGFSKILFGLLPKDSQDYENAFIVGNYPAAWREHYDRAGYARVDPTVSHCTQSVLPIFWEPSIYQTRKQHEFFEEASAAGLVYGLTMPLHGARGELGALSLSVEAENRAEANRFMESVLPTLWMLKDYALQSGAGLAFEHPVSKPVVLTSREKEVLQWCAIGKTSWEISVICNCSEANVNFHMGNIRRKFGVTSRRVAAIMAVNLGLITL
T2 sequence (P54292 whole entry): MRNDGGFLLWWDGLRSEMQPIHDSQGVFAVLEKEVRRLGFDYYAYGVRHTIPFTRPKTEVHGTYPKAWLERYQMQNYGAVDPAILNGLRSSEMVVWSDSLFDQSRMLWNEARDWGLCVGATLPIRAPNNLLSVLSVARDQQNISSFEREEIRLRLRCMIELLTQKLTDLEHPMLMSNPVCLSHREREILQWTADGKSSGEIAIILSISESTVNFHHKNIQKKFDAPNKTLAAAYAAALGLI

Turning to `CCCCCCCCCC(=O)CC(=O)N[C@@H]1CCC[C@H]1O` (racemic) [Compound 2, N-(trans-2-hydroxycyclopentyl)-3-oxododecanamide], in the data set with pyocyanin [1], the “effect on pyocyanin production” value is reported as “no significant effect”. Besides, the “reduction of pyocyanin expression” value with pyocyanin [2] amounted to 50%. For the same compound, the “effect on elastase activity” value in the data set on Elastase B [3] and with Elastase B [4] was “no significant effect” throughout. Besides, the “effect on cell growth” value with P. aeruginosa is on record as “not affected”. On LasR [5], the “inhibition of GFP expression (lasI-gfp)” value was “approximately 70%”.
For `O=C1C=C(Br)/C(=C/Br)O1` [furanone], the “inhibition (antagonist activity)” value with lasB promoter is reported as “Approximately 50%”.
Take `CCCCCCCCCC(=O)CC(=O)N[C@@H]1CCC[C@H]1O` (relative stereo) [Compound 2, N-(trans-2-hydroxycyclopentyl)-3-oxododecanamide]: the “inhibition of GFP expression from lac promoter” value with lac promoter is given as “inability to inhibit GFP expression”. Moreover, at LasR [6], the “agonist activity (induction of lasI-gfp reporter)” value was “nearly unable to induce the reporter”. Further, the “antagonist activity on rhlI-gfp reporter” value in the data set with RhlR [7] is reported as “no antagonist activity”.
`CCCCCCCCCC(=O)CC(=O)N[C@H]1CCOC1=O` [AI1, N-(3-oxododecanoyl)-L-homoserine lactone, reference compound]: the “agonist activity (induction of lasI-gfp reporter)” value on LasR [6] is given as “activated; also recorded: Strong QS induction”. At RhlR [8], the “reduction of binding of AI2 to RhlR” value is on record as 86%. At LasR [9], the “lasB-lacZ reporter activation (beta-galactosidase activity)” value is recorded as “activated”.
